Measurements as given in patent US8207403B2, “EPSP synthase with high glyphosate resistance and its encoded sequence” (Biotechnology Research Institute The Chinese Academy of …, priority 2007, dated 2012).

Columns and labels:
[1] = system: GR-79 EPSP synthase (5-enolpyruvylshikinate-3-phosphate synthase), SEQ ID NO:1; assay: EPSP synthase enzyme activity and kinetic parameters (inorganic phosphorus release, PEP + S3P); assay type: biochemical
Method: (§1) Standard curve of inorganic phosphorus: 10 mM inorganic phosphorus was diluted at 1:10, and 0, 1, 2, 3 . . . 20 μl was taken into 1.5 ml Eppendorf tube and milli-Q purified water was added up to 100 μl with mixing, 0.8 ml MAT solution was added with mixing, and then 100 μl 34% SC solution was quickly added with mixing after 3 min, kept at room temperature for 20 min and then the OD660 value was determined. Repeat the operations three times as above. The standard curve of inorganic phosphorus was achieved using the concentration of inorganic phosphorus as abscissa and the OD660 value as ordinate.
(§2) 1) Enzyme activity test: The crude protein extracted with enzyme was quantified using Coomassie Blue G-250 method (Bradford, 1976). The follow solutions were added into 1.5 ml Eppendorf tube on the ice: 2 μl of 10 mM PEP solution, 2 μl of 10 mM S3P solution, 2 μl of 0.5M HEPES solution, 2 μl of 1 mM (NH4)6MO7O24.4H2O solution and 12 μl of milli-Q purified water with mixing, bathed at 28° C. for 5 min and 1 μl crude enzyme solution was added into each, tube at intervals and timing, 200 μl MAT solution was added after 2 min at 2s intervals again, color development was performed for 3 min, and then 20 μl of 34% SC solution was added at 2s intervals and quickly mixed well, the color was developed for 20 min at room temperature and finally the OD660 value was determined. […]

[2] = system: E. coli ER2799 (EPSP synthase defective) with EPSP synthase gene from Agrobacterium sp. cp4 (CP4-ER); assay: Glyphosate tolerance test, positive control strain CP4-ER; assay type: cell-based; details: M9 liquid medium, 37° C., 36 h, OD600
Method: CP4-ER strain was a strain with glyphosate resistance obtained by ligating the EPSP synthase gene from Agrobacterium sp. cp4 to the vector pACYC 184 and introducing into EPSP synthase defective E. coli ER2799 strain (NEB Company). It was used as a positive control in the figure.
(§3) The three strains were respectively inoculated into the limited medium M9 with the glyphosate concentration of 0, 20, 50, 80, 100, 120, 150, 200, 250, 300 mM, shaking cultured at 37° C. for 36 h, the absorbance values were determined at OD600 and the figure was plotted with the values.
(§4) E. coli ER2799 (containing new cloned pACYCGR-79 plasmid) was inoculated into M9 liquid medium (Cm^r) with 0-200 mm glyphosate, shaking cultured at 37° C. for 36 h, and the OD600 value of culture was determined. E. coli ER2799 with plasmid without insert was used as negative control.

[3] = system: E. coli ER2799 (EPSP synthase defective) carrying pACYCGR-79 (GR-79-ER); assay: Glyphosate tolerance test, strain GR-79-ER; assay type: cell-based; details: M9 liquid medium, 37° C., 36 h, OD600
Method: FIG. 1 is a graph of analysis of glyphosate resistance of clone GR-79, wherein: GR-79-ER strain was a strain with glyphosate resistance obtained by cutting the total DNA of soil with enzyme partly, ligating the vector pACYC 184 and introducing into EPSP synthase defective E. coli ER2799 strain (NEB Company).
as §3, §4

[4] = system: transgenic tobacco with GR-79 EPSP synthase gene; assay: Glyphosate resistance gradient assay of transgenic tobacco; assay type: in vivo; details: greenhouse
Text: The plant expression vector of EPSP synthase gene with high glyphosate resistance was constructed and transgenic tobaccos were constructed by transformation using leaf disc cocultivation.
(8) The plants were removed when the root systems were large, the solid medium attached was washed off with sterile water, and the plants were transferred into the soil, covered with a glass cover for several days at the beginning days, and the cover was removed after the plants were robust, and then the plants were transferred to the solid medium with 10 mM glyphosate to screen the plant strains with glyphosate resistance;

[5] = target: GR-79 EPSP (uncultured soil bacterium (soil metagenome), UniProt A5Y5A5); assay: Enzyme activity test of EPSP synthase (inorganic phosphorus release); assay type: biochemical; details: crude enzyme, PEP and S3P substrates, 28° C., OD660
Method: as §1, §2

Chain of GR-79 EPSP (A5Y5A5 entry or part of it): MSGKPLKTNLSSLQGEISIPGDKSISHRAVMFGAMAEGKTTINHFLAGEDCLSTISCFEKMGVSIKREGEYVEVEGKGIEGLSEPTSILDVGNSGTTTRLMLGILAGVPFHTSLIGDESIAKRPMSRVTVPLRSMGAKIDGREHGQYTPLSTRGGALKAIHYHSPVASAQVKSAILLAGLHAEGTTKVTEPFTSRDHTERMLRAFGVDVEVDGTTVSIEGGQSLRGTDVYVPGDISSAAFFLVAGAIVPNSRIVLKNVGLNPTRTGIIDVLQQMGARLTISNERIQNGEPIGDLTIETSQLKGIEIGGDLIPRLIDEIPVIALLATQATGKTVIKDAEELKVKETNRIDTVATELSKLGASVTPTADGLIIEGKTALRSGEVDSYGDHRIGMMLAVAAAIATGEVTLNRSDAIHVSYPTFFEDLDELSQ

C=C(OP(=O)(O)O)C(=O)O [PEP]
Km ([1]; S3P maintained at 1 mM, PEP 0.05-1.0 mM, Eadie-Hofstee): 79.2 ± 32 µM

O=C(O)CNCP(=O)(O)O [glyphosate]
glyphosate resistance (highest glyphosate concentration allowing growth) [2]: 200 mM
glyphosate resistance (highest glyphosate concentration allowing growth) [3]: 250 mM
growth of transgenic plants in medium with 20 mM glyphosate [4]: could grow well
Ki/Km ([1]; Ki (glyphosate) / Km (PEP)): 2.16

B1: GR-79 EPSP: new type I EPSP synthase with high glyphosate resistance, 445 amino acids, SEQ ID NO:1 (protein)
chain: MSHSTSRSPWSKATEYHEALVTPTSNKINGEIFVPGSKSYTNRALIIAALAEGTSTLKGILKSDDSYWCIDALRRLGIKIEVAEETVTIHGCGGKWPVQSAELFIGAAGTIARFLPGALAVAQQGEWIVDGVPQLRERPLKPLVDALTQLGGRIEYLTEHPGLPLRVKGAGLSGQHVRVPGNVSSQFLSGLLIASPYASEAVSIEVINGLVQPSYIAITIQLMREFGAKVEHNEDYSLFKVYPTGYQGRDTILEADASTACYFLSLAALTGGTIQVKNVGYHSYQPDARFIDVLEQMGCEVIKNESFLEVTGPTRLKGGFEVDMKPMSDQALTIGALAPFADAPIRVTNVAHIRAHESDRIAVICSSLQQMGVQVEEREDGFTIYPGQPVGTTLNPHDDHRNAMVFGLLGVKVPHIRIVDPGCVSKTCPAYFEELQKFGIHVEYN
modifications: From a mixture of organisms
enzyme activity [5]: 10.477 U/mg
